# Key:
# B. cereus = assay: Inhibition of endospore germination (outgrowth), plating on nutrient agar; assay type: cell-based, Bacillus cereus; details: for Average Inhibition of Spore Germination: Table 2, B. cereus, 2 hours treatment; for Average Percent Inhibition of B. cereus: Table 3 (FIG. 2)
# Experimental: (§1) Heated samples were treated with 1, 5, 10% of GTP (mixed green tea polyphenols), LTP (lipophilic green tea polyphenols), EGCg (epigallocatechingallate), or EGCg-Stearate for 2 hours, diluted and plated onto nutrient agar plates, and incubated at 37° C. for 24 hours. Non-starved cells and starved cells without treatment were used as controls.
# (§2) Germination, specifically outgrowth, of purified endospores in Bacillus cereus, B. megaterium, and B. subtilis was studied by treating the bacteria with four different green tea polyphenols: GTP (mixed green tea polyphenols), LTP (lipophilic green tea polyphenols), EGCg (epigallocatechingallate), and EGCg-Stearate.
# [1] = tested on: Bacillus megaterium spores; assay: Viability of heat-treated spores after treatment, colony count on nutrient agar; assay type: cell-based; details: 10%
# Experimental: Bacillus megaterium spores were induced through process of starvation for 2 hours in sterile deionized water and then heated at 90° C. for 20 minutes. The heated samples were treated with 10% of EGCG or EGCG-ester for 1 hour or 24 hours respectively and then plated onto nutrient agar plates with a countable range of 150 to 300 CPU (colony counting unit). The non-starved cells and starved cells without treatment were used as controls.
# B. megaterium = assay: Inhibition of endospore germination (outgrowth), plating on nutrient agar; assay type: cell-based, Bacillus megaterium; details: for Average Inhibition of Spore Germination: Table 2, B. megaterium, 2 hours treatment; for Average Percent Inhibition of B. megaterium: Table 4 (FIG. 3)
# Experimental: as §1, §2
# B. subtilis = assay: as above; assay type: cell-based, Bacillus subtilis; details: for Average Inhibition of Spore Germination: Table 2, B. subtilis, 2 hours treatment; for Average Percent Inhibition of B. subtilis: Table 5 (FIG. 4)
# Experimental: as §1, §2
SMILES,Average Inhibition of Spore Germination (B. cereus; 1%),Average Inhibition of Spore Germination (B. cereus; 5%),Average Inhibition of Spore Germination (B. cereus; 10%),Average Percent Inhibition of B. cereus (B. cereus; concentration 1%),Average Percent Inhibition of B. cereus (B. cereus; concentration 5%),Average Percent Inhibition of B. cereus (B. cereus; concentration 10%),Inhibition of viability of Bacillus megaterium spores compared to the control ([1]; after 24 hours-incubation at 37° C.),Viable cells or colonies of Bacillus megaterium detected ([1]; both 1 hour and 24 hours treated samples),Average Inhibition of Spore Germination (B. megaterium; 10%),Average Percent Inhibition of B. megaterium (B. megaterium; concentration 1%),Average Percent Inhibition of B. megaterium (B. megaterium; concentration 5%),Average Percent Inhibition of B. megaterium (B. megaterium; concentration 10%),Average Inhibition of Spore Germination (B. subtilis; 1%),Average Inhibition of Spore Germination (B. subtilis; 5%),Average Inhibition of Spore Germination (B. subtilis; 10%),Average Percent Inhibition of B. subtilis (B. subtilis; concentration 1%),Average Percent Inhibition of B. subtilis (B. subtilis; concentration 5%),Average Inhibition of Spore Germination (B. megaterium; 1%),Average Inhibition of Spore Germination (B. megaterium; 5%)
"O=C(O[C@@H]1Cc2c(O)cc(O)cc2O[C@@H]1c1cc(O)c(O)c(O)c1)c1cc(O)c(O)c(O)c1 [EGCg, (−)-epigallocatechin-3-gallate]",16.9%,25.7%,33.0%,94.18%,91.68%,99%,90%,no viable cells or colonies,100.0%,96.39%,99.48%,99.85%,52.9%,45.1%,66.1%,99.95%,100%,–,–
"CCCCCCCCCCCCCCCCCC(=O)Oc1c(O)cc([C@H]2Oc3cc(O)cc(O)c3C[C@H]2OC(=O)c2cc(O)c(O)c(O)c2)cc1O [EGCg-Stearate, (−)-epigallocatechin-3-gallate (EGCG) esterified at the 4′ position with stearic acid]",72.6%,56.6%,90.5%,88.81%,98.49%,98%,–,–,79.0%,99.84%,91.91%,97.14%,55.0%,58.1%,69.2%,99.93%,98.77%,70.5%,75.0%

# Source: patent US20150025132A1, “COMPOSITIONS AND METHODS FOR INHIBITING ENDOSPORES USING GREEN TEA POLYPHENOLS” (priority 2013, published 2015)
